Values of other authors in patent US12472172B2, “Lomitapide for use in methods of treating hyperlipidemia and hypercholesterolemia in pediatric patients” (Amryt Pharmaceuticals Inc., priority 2020, dated 2025).

Conditions: adult

previously used fixed Qgut input: 17.9 L/h
Structure (SMILES): O=C(NC1CCN(CCCCC2(C(=O)NCC(F)(F)F)c3ccccc3-c3ccccc32)CC1)c1ccccc1-c1ccc(C(F)(F)F)cc1 [lomitapide, N-(2,2,2-trifluoroethyl)-9-[4-[4-[[[4′(trifluoromethyl)[1,1′-biphenyl]-2-yl]carbonyl]amino]-1-piperidinyl]butyl]-9H-fluorene-9-carboxamide]
